Patent US10287267B2, “Isoquinolin-3-yl carboxamides and preparation and use thereof” (Samumed, LLC, priority 2016, dated 2019)

Experiments:
[1] = tested on: Wnt pathway (Sp5-Luc reporter, TCF/LEF binding sites) in SW480 colon carcinoma cells; experiment: Screening assay for Wnt activity: Sp5-Luc reporter gene assay; format: cell-based, human; settings: Homo sapiens; for EC50: Sp5-Luc reporter, SW480 cells, 36 to 48 hours; for inhibition at 10 µM: SW480, read-out: percent inhibition at 10 μM;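 for all read-outs here: firefly luciferase luminescence read in stably transduced SW480 cells carrying the Sp5 promoter reporter with eight TCF/LEF sites, compounds given in 0.1% DMSO final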
Experimental: The screening assay for Wnt activity is described as follows.
Following incubation, 15 μl of BriteLite Plus luminescence reagent (Perkin Elmer) was added to each well of the 384-well assay plates. The plates were placed on an orbital shaker for 2 min and then luminescence was quantified using the Envision (Perkin Elmer) plate reader.

[2] = biological target: recombinant DYRK1A kinase (Homo sapiens (Human), UniProt Q13627); experiment: DYRK1A kinase assay (Ser/Thr 18 peptide Z-lyte FRET); format: biochemical; settings: 30 μM ATP, 1 h room temperature;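 note: Read-out is the coumarin to fluorescein emission ratio, referenced to unphosphorylated (0%) and phosphorylated (100%) Ser/Thr 18 peptide controls, values from dose-response curves by non-linear regression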
[3] = biological target: recombinant GSK3β kinase (Homo sapiens (Human), UniProt P49841); experiment: GSK3β kinase assay (Ser/Thr 09 peptide Z-lyte FRET); format: biochemical; settings: 46 μM ATP, 1 h room temperature;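 note: kinase activity read as coumarin to fluorescein emission ratio, 11-point threefold dilutions from 10 µM to 0.0003 µM in duplicate, unphosphorylated and phosphorylated peptide as 0% and 100% controls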
recombinant GSK3β kinase, sequence (P49841 whole entry): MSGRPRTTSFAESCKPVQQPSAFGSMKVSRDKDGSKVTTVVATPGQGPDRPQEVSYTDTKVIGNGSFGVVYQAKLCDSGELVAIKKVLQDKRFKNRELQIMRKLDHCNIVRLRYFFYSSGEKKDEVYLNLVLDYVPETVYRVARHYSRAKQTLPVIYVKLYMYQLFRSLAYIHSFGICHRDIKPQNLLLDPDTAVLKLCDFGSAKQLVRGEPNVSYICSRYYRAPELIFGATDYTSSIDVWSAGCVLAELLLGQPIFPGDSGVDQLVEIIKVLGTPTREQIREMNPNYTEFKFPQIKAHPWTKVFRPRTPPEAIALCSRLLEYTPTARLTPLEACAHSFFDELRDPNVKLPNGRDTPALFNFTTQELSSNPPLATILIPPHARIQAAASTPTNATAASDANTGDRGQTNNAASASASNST

[4] = tested on: SW480 colon carcinoma cells; experiment: Cell viability assay (CellTiter-Glo); format: cell-based, human; settings: Homo sapiens; for EC50: 96 h, SW480 cells, CellTiter-Glo, four days incubation; for inhibition at 10 µM: SW480, read-out: percent inhibition at 10 μM
[5] = tested on: α-smooth muscle actin (αSMA) positive LL29 cells; experiment: Inhibition of fibrotic process: αSMA in TGF-β1 treated primary human fibroblasts from IPF patients; format: cell-based; settings: Homo sapiens, Fibroblast, 96 h; Table 8; LL29 fibroblasts from IPF patients, TGF-β1 20 ng/mL, 4 days; dose-response 10 μM to 0.94 nM;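 note: controls were TGF-β1 stimulated wells with DMSO vehicle (positive) and cells given DMSO alone (negative), cultured in F12 medium with 1% fetal bovine serum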
[6] = tested on: IL-6; experiment: IL-6 inhibition in LPS-stimulated human peripheral blood mononuclear cells (HTRF); format: cell-based; settings: Homo sapiens, PBMC; for EC50: Table 9, huPBMCs, LPS 50 ng/mL, 22 hours, dose-response starting from 10 μM;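 for all read-outs here: IL-6 detected by HTRF with an XL665- and Cryptate-labelled anti-IL-6 antibody pair, samples run in duplicate, EC50 obtained from a four-parameter Levenberg-Marquardt curve fit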
Experimental: After 22 hour incubation, a mixture of anti-IL6 XL665 and anti-IL-6 Cryptate diluted in reconstitution buffer (Catalog #62IL6PEC, Cisbio Inc., Bedford, Mass.) was added to each well. […] All samples were processed in duplicate. […] EC50 was determined using software generated by Dotmatics Limited (Windhill Bishops Stortford Herts, UK) using the Levenberg-Marquardt 4 parameter fitting procedure with finite different gradients.

SMILES	EC50 [1]	EC50 [2]	EC50 [3]	EC50 [4]	EC50 [5]	EC50 [6]	inhibition at 10 µM [4]	inhibition at 10 µM [1]	inhibition at 10 µM ([6]; read-out: percent value in parentheses beside EC50 >10 μM)
Cc1ncc(-c2ccc3cnc(NC(=O)C4CCCCC4)cc3c2)n1C [Compound 120, N-(6-(1,2-Dimethyl-1H-imidazol-5-yl)isoquinolin-3-yl) cyclohexanecarboxamide]	2.21 µM	4.8 nM	138 nM	2490 nM	2130 nM	2.29 µM			
O=C(CN1CCCC1)Nc1cc2cc(-c3cn[nH]c3C(F)(F)F)ccc2cn1 [Compound 287, 2-(Pyrrolidin-1-yl)-N-(6-(5-(trifluoromethyl)-1H-pyrazol-4-yl)isoquinolin-3-yl)acetamide]	7.33 µM	5140 nM	9840 nM	> 10000 nM	2350 nM	9.58 µM	47.8%		
Cn1cc(-c2ccc3cnc(NC(=O)N4CN5CCC[C@@H]5C4=O)cc3c2)cn1 [Compound 362, (R)—N-(6-(1-Methyl-1H-pyrazol-4-yl)isoquinolin-3-yl)-1-oxotetrahydro-1H-pyrrolo[1,2-c]imidazole-2(3H)-carboxamide]	0.951 µM	132 nM	1100 nM	5480 nM	782 nM	9.15 µM			
CN1CCC(n2cc(-c3ccc4cnc(NC(=O)C5CCCCC5)cc4c3)cn2)CC1 [Compound 969, N-(6-(1-(1-Methylpiperidin-4-yl)-1H-pyrazol-4-yl)isoquinolin-3-yl) cyclohexanecarboxamide]	3.93 µM	50 nM	7610 nM	2880 nM	935 nM	9.12 µM			
CC#CC(=O)Nc1cc2cc(-c3cnn(C)c3)ccc2cn1 [Compound 1026, N-(6-(1-Methyl-1H-pyrazol-4-yl)isoquinolin-3-yl)but-2-ynamide]	0.513 µM	5 nM	508 nM	554 nM	2260 nM	9.52 µM			
Cn1cc(-c2ccc3cnc(NC(=O)[C@H]4CC[C@H](C(=O)O)CC4)cc3c2)cn1 [Compound 1032, trans-4-((6-(1-Methyl-1H-pyrazol-4-yl)isoquinolin-3-yl)carbamoyl) cyclohexane-1-carboxylic acid]	> 10 µM	1.2 nM	72 nM	> 10000 nM		3.32 µM	34.7%	27.4%	
CC(C)CN1CCC(F)(C(=O)Nc2cc3cc(-n4nccn4)ccc3cn2)CC1 [Compound 1073, N-(6-(2H-1,2,3-triazol-2-yl)isoquinolin-3-yl)-4-fluoro-1-isobutylpiperidine-4-carboxamide]	> 10 µM	1520 nM	> 10000 nM	> 10000 nM	> 10000 nM	> 10 µM	8.5%	5.9%	3.3%
Cn1cc(-c2ccc3cnc(NC(=O)C45CC(CO)(C4)C5)cc3c2)cn1 [Compound 1083, 3-(Hydroxymethyl)-N-(6-(1-methyl-1H-pyrazol-4-yl)isoquinolin-3-yl) bicyclo[1.1.1]pentane-1-carboxamide]	8.21 µM	4.2 nM	914 nM	901 nM		8.73 µM			
COC(=O)[C@H]1CC[C@H](C(=O)Nc2cc3cc(-c4cnn(C)c4)ccc3cn2)CC1 [Compound 1084, Methyl trans-4-((6-(1-methyl-1H-pyrazol-4-yl)isoquinolin-3-yl)carbamoyl) cyclohexane-1-carboxylate]	3.41 µM	1.7 nM	40 nM	3670 nM		0.752 µM			
[2H]c1nc(NC(=O)C2CCNCC2)cc2cc(-c3cnn(C)c3)ccc12 [Compound 1085, N-(6-(1-Methyl-1H-pyrazol-4-yl)isoquinolin-3-yl-1-d)piperidine-4-carboxamide]	2.19 µM	2.4 nM	83 nM	1240 nM		0.453 µM			
